Measured values taken from patent US4740233A, “Substituted 1,2,4-triazolo[1,5-a]-pyrimidine-2-sulfonamides and compositions and methods of controlling undesired vegetation and suppressing the nitrification of ammonium nitrogen in soil” (The Dow Chemical Company, priority 1986, dated 1988).

Tests used:
wheat = experiment: Postemergent control of plant species; format: in vivo, Triticum aestivum; conditions: Triticum aestivum, post-emergence, 336 h, read-out: percent postemergent control
Summary of the method: (§1)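 Foliar spray, 2-4 leaf stage, greenhouse. Formulation: acetone solution (2x final conc.) mixed 1:1 with water + 0.1% surface active agent. ~2 wk hold, watered as needed. Readout = % growth reduction vs untreated same-species controls.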

crabgrass = experiment: Postemergent control of plant species; format: in vivo, Digitaria spp.; conditions: Digitaria sanguinalis, post-emergence, 336 h, read-out: percent postemergent control
Summary of the method: as §1

barnyardgrass = experiment: Postemergent control of plant species; format: in vivo, Echinochloa crusgalli; conditions: Echinochloa crus-galli, post-emergence, 336 h, read-out: percent postemergent control
Summary of the method: as §1

sugar beet = experiment: Postemergent control of plant species; format: in vivo, Beta saccharifera; conditions: Beta vulgaris, post-emergence, 336 h, read-out: percent postemergent control
Summary of the method: as §1

[1] = tested on: nitrification of ammonium nitrogen; experiment: Suppression of nitrification of ammonium nitrogen in soil; conditions: 27° C.
Summary of the method: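 Soil (20 g) moistened to its 1/3 bar tension value, mixed with test chemical and incubated sealed for two weeks at 27° C. Nitrate extracted with ammonium sulfate solution and measured by nitrate-specific ion electrode; value given as % NH4-N remaining.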

cocklebur = experiment: Postemergent control of plant species; format: in vivo, Xanthium spp.; conditions: Xanthium strumarium, post-emergence, 336 h, read-out: percent postemergent control
Summary of the method: as §1

yellow nutsedge = experiment: Postemergent control of plant species; format: in vivo, Cyperus esculentus; conditions: Cyperus, post-emergence, 336 h, read-out: percent postemergent control
Summary of the method: as §1

soybean = experiment: Postemergent control of plant species; format: in vivo, Glycine max.; conditions: Glycine max, post-emergence, 336 h, read-out: percent postemergent control
Summary of the method: as §1

wild oats = experiment: Postemergent control of plant species; format: in vivo, Avena fatua; conditions: Avena fatua, post-emergence, 336 h, read-out: percent postemergent control
Summary of the method: as §1

velvetleaf = experiment: Postemergent control of plant species; format: in vivo, Abutilon theophrasti; conditions: Abutilon theophrasti, post-emergence, 336 h, read-out: percent postemergent control
Summary of the method: as §1

corn = experiment: Postemergent control of plant species; format: in vivo, Zea mays; conditions: Zea mays, post-emergence, 336 h, read-out: percent postemergent control
Summary of the method: as §1

rice = experiment: Postemergent control of plant species; format: in vivo, Oryza sativa; conditions: Oryza sativa, post-emergence, 336 h, read-out: percent postemergent control
Summary of the method: as §1

cotton = experiment: Postemergent control of plant species; format: in vivo, Gossypium spp.; conditions: Gossypium hirsutum, post-emergence, 336 h, read-out: percent postemergent control
Summary of the method: as §1

johnson grass = experiment: Postemergent control of plant species; format: in vivo, Sorghum halepense; conditions: Sorghum halepense, post-emergence, 336 h, read-out: percent postemergent control
Summary of the method: as §1

jimsonweed = experiment: Postemergent control of plant species; format: in vivo, Datura stramonium; conditions: Datura stramonium, post-emergence, 336 h, read-out: percent postemergent control
Summary of the method: as §1

annual morning glory = experiment: Postemergent control of plant species; format: in vivo, Ipomoea spp.; conditions: Ipomoea, post-emergence, 336 h, read-out: percent postemergent control
Summary of the method: as §1

yellow foxtail = experiment: Postemergent control of plant species; format: in vivo, Setaria lutescens; conditions: Setaria, post-emergence, 336 h, read-out: percent postemergent control
Summary of the method: as §1

rape = experiment: Postemergent control of plant species; format: in vivo, Brassica napus; conditions: Brassica napus, post-emergence, 336 h, read-out: percent postemergent control
Summary of the method: as §1

sorghum = experiment: Postemergent control of plant species; format: in vivo, Sorghum vulgare; conditions: Sorghum, post-emergence, 336 h, read-out: percent postemergent control
Summary of the method: as §1

pigweed = experiment: Postemergent control of plant species; format: in vivo, Amaranthus spp.; conditions: Amaranthus retroflexus, post-emergence, 336 h, read-out: percent postemergent control
Summary of the method: as §1

Row | Structure (SMILES) | plant injury at 500 ppm (wheat) [%] | pest or weed control at 500 ppm (crabgrass) [%] | pest or weed control at 500 ppm (barnyardgrass) [%] | plant injury at 500 ppm (sugar beet) [%] | % NH4-N Remaining After 2 Weeks Incubation ([1]; 1 ppm) [%] | pest or weed control at 500 ppm (cocklebur) [%] | pest or weed control at 500 ppm (yellow nutsedge) [%] | plant injury at 500 ppm (soybean) [%] | pest or weed control at 500 ppm (wild oats) [%] | pest or weed control at 500 ppm (velvetleaf) [%] | plant injury at 500 ppm (corn) [%] | plant injury at 500 ppm (rice) [%] | plant injury at 500 ppm (cotton) [%] | pest or weed control at 500 ppm (johnson grass) [%] | pest or weed control at 500 ppm (jimsonweed) [%] | pest or weed control at 500 ppm (annual morning glory) [%] | pest or weed control at 500 ppm (yellow foxtail) [%] | plant injury at 500 ppm (rape) [%] | plant injury at 500 ppm (sorghum) [%] | pest or weed control at 500 ppm (pigweed) [%] | further results
1 | Cc1cc(C)n2nc(S(=O)(=O)Nc3c(Cl)cccc3CO)nc2n1 [Compound 93] | 0 | 0 | 0 | 70 | 64 | 80 | 15 | 90 | 0 | 20 | 0 | 0 | 0 | 0 | 80 | 0 | 0 | 70 | 0 | 70 | % NH4-N Remaining After 2 Weeks Incubation ([1]; 0.06 ppm): 79%; % NH4-N Remaining After 2 Weeks Incubation ([1]; 0.25 ppm): 57%; % NH4-N Remaining After 2 Weeks Incubation ([1]; 4 ppm): 89%
2 | O=S(=O)(Nc1ccccc1C(F)(F)F)c1nc2ncccn2n1 [Compound 136] | 0 | 0 | 0 | 80 | 67 | 98 | 0 | 30 | 0 | 70 | 0 | 0 | 30 | 0 | 30 | 40 | 0 | 80 | 0 | 90 | % NH4-N Remaining After 2 Weeks Incubation ([1]; 0.01 ppm): 0%; % NH4-N Remaining After 2 Weeks Incubation ([1]; 0.1 ppm): 10%; % NH4-N Remaining After 2 Weeks Incubation ([1]; 10 ppm): 98%
3 | Cc1nc2nc(S(=O)(=O)Nc3ccccc3C(F)(F)F)nn2c2c1CCC2 [Compound 106] | 20 | 0 | 30 | 0 | 88 | 90 | 0 | 90 | 30 | 0 | 90 | 30 | 30 | 90 | 0 | 80 | 0 | 40 | 40 | 40 | % NH4-N Remaining After 2 Weeks Incubation ([1]; 0.01 ppm): 29%; % NH4-N Remaining After 2 Weeks Incubation ([1]; 0.1 ppm): 56%; % NH4-N Remaining After 2 Weeks Incubation ([1]; 10 ppm): 96%
4 | COC(=O)c1nn(C)c(C)c1NS(=O)(=O)c1nc2nc(C)cc(C)n2n1 [Compound 250] | 0 | 0 | 0 | 30 |  | 50 | 0 | 50 | 0 | 70 | 0 | 0 | 0 | 0 | 50 | 25 | 0 | 70 | 0 | 40 | 
5 | Cc1cc(C)n2nc(S(=O)(=O)Nc3c(C)ccc(Cl)c3Cl)nc2n1 [Compound 74] | 0 | 0 | 70 | 100 |  | 100 | 95 | 80 | 0 | 100 | 0 | 0 | 70 | 50 | 90 | 80 | 60 | 100 | 80 | 70 | 
6 | Cc1cc(C)n2nc(S(=O)(=O)Nc3c(Cl)ccc4ccccc34)nc2n1 [Compound 243] | 20 | 0 | 70 | 95 |  | 100 | 95 | 85 | 0 | 90 | 75 | 45 | 80 | 80 | 95 | 80 | 75 | 100 | 75 | 80 | 
7 | Cc1ccn2nc(S(=O)(=O)Nc3c(Cl)ccc4ccccc34)nc2n1 [Compound 244] | 20 | 40 | 40 | 100 |  | 100 | 90 | 45 | 0 | 100 | 40 | 40 | 100 | 80 | 100 | 90 | 95 | 100 | 90 | 100 | 
8 | COC(=O)c1c(NS(=O)(=O)c2nc3nc(C)ccn3n2)c(C)nn1C [Compound 248] | 0 | 0 | 0 | 75 |  | 0 | 0 | 40 | 0 | 100 | 0 | 50 | 50 | 0 | 0 | 0 | 0 | 100 | 80 | 0 | 
